Source: patent publication US7700822B2, “Modulation of cytochrome P450 reductase activity” (Cancer Research Technology Limited, priority 2002, dated 2010)

How the values were obtained:
[1] = tested on: hepatic P450 monoxygenase activities; test: O-dealkylation of 7-methoxyresorufin in hepatic microsomes; details: CPRlox/- +CreALB mice, nmol metabolite per nmol P450
[2] = tested on: hepatic P450 monoxygenase activities; test: Microsomal hydroxylation of testosterone in liver microsomes; details: liver microsomes of hepatic CPR nulls of both sexes
[3] = tested on: control, CPR heterozygous null and hepatic CPR null mice; test: Pentobarbital sleep time (regain of righting reflex); format: in vivo, mouse; details: 20 mg/kg i.p.
Experimental: c Time taken for regain of righting reflex in adult male mice of various genotypes following treatment with sodium pentobarbital at 20 mg/kg i.p. (n=3). Values are expressed as mean±SEM.
Pentobarbital sleep time—adult male CPR^lox/lox+Cre^ALB, CPR^lox/−+Cre^ALB, CPR^lox/− and CPR^+/++Cre^ALB mice (n=3) were given a single intraperitoneal (i.p.) dose of sodium pentobarbitone (Sagatal) at 20 mg/kg body weight. The time taken for the mice to lose, and subsequently to regain, their righting reflex was measured.
Cytochrome P450s involved in drug metabolism are distributed throughout the tissues of the body; it has been estimated that a significant proportion of drug metabolism (up to 30%) may be extra-hepatic. In order to test the level of extra-hepatic metabolism as well as the in vivo effects of hepatic CPR nulls on drug disposition, we measured barbiturate-induced sleeping times. This method has been used since the 1960s as an indicator of drug metabolising activity.

With `COc1ccc2nc3ccc(=O)cc-3oc2c1` [7-methoxyresortifin] the “reduction of O-dealkylation” value ([1]; females) was 98.5% and the “reduction of O-dealkylation” value ([1]; males) was 99.5%.
In the case of `C[C@]12CC[C@H]3[C@@H](CCC4=CC(=O)CC[C@@]43C)[C@@H]1CC[C@@H]2O` [testosterone], the 16-hydroxylation of testosterone [2] is reported as “undetectable”.
With `CCCC(C)C1(CC)C(=O)NC(=O)NC1=O` (stereo not drawn) [pentobarbitone] the average sleeping period ([3]; CPR heterozygous null mice (CPR+/-)) was “approximately 50 minutes”, the induction of sleep ([3]; control mice) was “failed to induce sleep” and the sleeping period ([3]; mice lacking hepatic CPR (CPRlox/- +CreALB or CPRlox/lox +CreALB)) was over 2 h.
